For two compounds, EC50 results are on record in ChEMBL document CHEMBL5725952, “Imidazopyridine macrocycles as inhibitors of human immunodeficiency virus replication” (2018).

Bounds are passed on as bounds.

The test in a line: Inhibition of HIV Replication: A recombinant NL-RLuc proviral clone was constructed in which a section of the nef gene from NL4-3 was replaced with the Renilla Luciferase gene. This virus is fully infectious and can undergo multiple cycles of replication in cell culture. In addition, the luciferous reporter provides a simple and easy method for quantitating the extent of virus growth and consequently, the antiviral activity of test compounds. The plasmid pNLRLuc contains the proviral NL-Rluc DNA cloned into pUC18 at the PvuII site. The NL-RLuc virus was prepared by transfection of 293T cells with the plasmid pNLRLuc. Transfections were performed using the LipofectAMINE PLUS kit from Invitrogen (Carlsbad, Calif.) according to the manufacturer and the virus generated was titered in MT-2 cells. For susceptibility analyses, the titrated virus was used to infect MT-2 cells in the presence of compound, and after 5 days of incubation, cells were processed and quantitated for virus growth by the amount of expressed luciferase. Assay media was RPMI 1640 supplemented with 10% heat inactivated fetal bovine serum (FBS), 100 units/ml penicillin G/100 units/ml streptomycin, 10 mM HEPES buffer pH 7.55 and 2 mM L-glutamine. The results from at least 2 experiments were used to calculate the EC50 values. Luciferase was quantitated using the Dual Luciferase kit from Promega (Madison, Wis.). […]. Type of test: cell-based. Particulars: […].

As for `Cc1c([C@@H](OC(C)(C)C)C(=O)O)c2n3cc(nc3c1C)-c1cccc(c1)-c1cc(F)c(F)cc1O[C@@H](C)COCCOC1(C)CCN2CC1`, the concentration giving a half-maximal response (EC50) was 0.55 µM. For `Cc1c([C@H](OC(C)(C)C)C(=O)O)c2n3cc(nc3c1C)-c1cccc(c1)-c1cc(F)c(F)cc1O[C@@H](C)COCCOC1(C)CCN2CC1`, the 50% effective concentration (EC50) is < 0.1 µM.
